Results on four compounds are retold here after ChEMBL document CHEMBL5715260, “Selectivity Literature for EUbOPEN Chemogenomic Library” (2024).

For data set [1], the target named is T1, Retinoic acid receptor RXR-alpha (Homo sapiens) (UniProt P19793).
T1 sequence (whole entry): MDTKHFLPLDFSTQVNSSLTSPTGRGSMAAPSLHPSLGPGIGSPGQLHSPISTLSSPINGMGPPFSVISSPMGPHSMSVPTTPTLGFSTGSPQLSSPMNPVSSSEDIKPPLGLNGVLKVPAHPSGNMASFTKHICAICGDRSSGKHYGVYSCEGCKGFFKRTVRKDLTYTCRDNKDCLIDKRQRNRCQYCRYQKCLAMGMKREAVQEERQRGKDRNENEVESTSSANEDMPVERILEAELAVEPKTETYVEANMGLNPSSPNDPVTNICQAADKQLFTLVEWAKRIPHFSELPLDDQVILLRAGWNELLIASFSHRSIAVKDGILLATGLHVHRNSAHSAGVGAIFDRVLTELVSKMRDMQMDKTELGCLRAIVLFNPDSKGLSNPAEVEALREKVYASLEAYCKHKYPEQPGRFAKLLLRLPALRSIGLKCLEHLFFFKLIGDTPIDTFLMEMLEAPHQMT
The experiment in a line: Selectivity interaction (Reporter gene assay) EUB0000082b RXRA. Details: recommended concentration 3 uM. The conditions noted are these: reference bexarotene 1 uM, Selectivity number of off-targets 0.0, Selectivity number of targets 1.0, Source Knowledge inhouse. (A reporter such as luciferase makes a cellular process visible.)

Data set [2] has as its target T2, Hepatocyte nuclear factor 4-alpha (Homo sapiens) (UniProt P41235).
T2 sequence (whole entry): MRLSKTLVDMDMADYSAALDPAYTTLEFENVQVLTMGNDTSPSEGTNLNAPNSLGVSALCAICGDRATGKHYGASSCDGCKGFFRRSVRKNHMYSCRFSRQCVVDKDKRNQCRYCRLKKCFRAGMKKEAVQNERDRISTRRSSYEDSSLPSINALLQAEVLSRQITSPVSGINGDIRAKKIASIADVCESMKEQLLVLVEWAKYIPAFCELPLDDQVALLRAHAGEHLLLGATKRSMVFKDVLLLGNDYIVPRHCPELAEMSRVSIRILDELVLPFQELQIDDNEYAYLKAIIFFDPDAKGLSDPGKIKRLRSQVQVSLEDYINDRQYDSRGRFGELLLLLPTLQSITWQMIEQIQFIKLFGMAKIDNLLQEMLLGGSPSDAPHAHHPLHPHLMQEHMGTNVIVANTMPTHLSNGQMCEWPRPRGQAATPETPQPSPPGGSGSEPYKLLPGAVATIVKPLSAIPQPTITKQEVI
Description: Selectivity interaction (Reporter gene assay) EUB0000082b HNF4A. Also noted: recommended concentration 3 uM.

The target of data set [3] is NR1I2 (nuclear receptor subfamily 1 group I member 2, PXR) (Homo sapiens, UniProt O75469). Description: Selectivity interaction (Reporter gene assay) EUB0000082b NR1I2. Details: recommended concentration 3 uM. The conditions noted are these: read-out: Fold activation.
Data set [4] concerns the target T3, Alpha trans-inducing protein (Human alphaherpesvirus 1) (UniProt A0A5J6DW59). Description: Selectivity interaction (Reporter gene assay) EUB0000082b UL48. Details: recommended concentration 3 uM.
Data set [5] has as its target Nuclear receptor subfamily 2 group E member 1 (Homo sapiens) (UniProt Q9Y466). The experiment in a line: Selectivity interaction (Reporter gene assay) EUB0000082b NR2E1. Details: recommended concentration 3 uM. The conditions noted are these: screened at recom. conc., Selectivity number of off-targets 2.0, Selectivity number of targets 5.0, Source Knowledge inhouse.

Data set [6] addresses Nuclear receptor subfamily 4immunitygroup A member 1 (Homo sapiens) (UniProt P22736). Description: Selectivity interaction (Reporter gene assay) EUB0000082b NR4A1. Details: recommended concentration 3 uM.
For data set [7], the target named is T4, Nuclear receptor subfamily 2 group C member 1 (Homo sapiens) (UniProt P13056).
T4 sequence (whole entry): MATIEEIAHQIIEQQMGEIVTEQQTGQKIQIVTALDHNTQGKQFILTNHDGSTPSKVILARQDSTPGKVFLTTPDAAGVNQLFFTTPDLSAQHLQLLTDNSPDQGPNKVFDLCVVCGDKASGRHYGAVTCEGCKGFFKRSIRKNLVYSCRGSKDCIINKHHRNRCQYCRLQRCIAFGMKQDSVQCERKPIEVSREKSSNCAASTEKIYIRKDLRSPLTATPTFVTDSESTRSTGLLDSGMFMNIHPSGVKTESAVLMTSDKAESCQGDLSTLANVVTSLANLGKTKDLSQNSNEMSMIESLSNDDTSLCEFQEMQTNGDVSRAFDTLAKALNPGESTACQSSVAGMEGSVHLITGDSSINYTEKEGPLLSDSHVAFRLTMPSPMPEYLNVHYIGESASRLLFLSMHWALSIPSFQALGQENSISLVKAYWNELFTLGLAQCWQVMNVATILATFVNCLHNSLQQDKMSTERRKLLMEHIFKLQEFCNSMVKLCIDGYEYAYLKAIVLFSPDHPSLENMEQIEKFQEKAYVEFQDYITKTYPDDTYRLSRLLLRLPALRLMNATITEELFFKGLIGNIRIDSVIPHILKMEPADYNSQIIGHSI
The experiment in a line: Selectivity interaction (Reporter gene assay) EUB0000082b NR2C1. Also noted: recommended concentration 3 uM.

The target in data set [8] is Steroidogenic factor 1 (Homo sapiens) (UniProt Q13285). The experiment in a line: Selectivity interaction (Reporter gene assay) EUB0000082b NR5A1. Also noted: recommended concentration 3 uM.
For data set [9], the target named is cGMP-specific 3',5'-cyclic phosphodiesterase (Homo sapiens) (UniProt O76074). The experiment in a line: Selectivity interaction (Enzymatic assay) EUB0002694a PDE5A. Also noted: recommended concentration 1 uM. The conditions noted are these: at 10 µM.
The target of data set [10] is cAMP and cAMP-inhibited cGMP 3',5'-cyclic phosphodiesterase 10A (Homo sapiens) (UniProt Q9Y233). The experiment in a line: Selectivity interaction (Enzymatic assay) EUB0002694a PDE10A. Details: recommended concentration 1 uM. The conditions noted are these: at 10 µM.
For data set [11], the target named is Substance-P receptor (Homo sapiens) (UniProt P25103). The experiment in a line: Selectivity interaction (NIMH PDSP panel) EUB0002346a TACR1. Also noted: recommended concentration 1 uM. The following applies: at 10 µM.
Data set [12] addresses Substance-K receptor (Homo sapiens) (UniProt P21452). Description: Selectivity interaction (NIMH PDSP panel) EUB0002346a TACR2. Details: recommended concentration 1 uM. The conditions noted are these: at 10 µM.
Data set [13] concerns the target Delta-type opioid receptor (Homo sapiens, UniProt P41143). Description: Selectivity interaction (NIMH PDSP panel) EUB0002346a OPRD1. Details: recommended concentration 1 uM. The following applies: at 10 µM.
Data set [14] has as its target T5, Mu-type opioid receptor (Homo sapiens, UniProt P35372). Description: Selectivity interaction (NIMH PDSP panel) EUB0002346a OPRM1. The conditions noted are these: at 10 µM. Also noted: recommended concentration 1 uM.
Data set [15] deals with T6, Kappa-type opioid receptor (Homo sapiens, UniProt P41145). The experiment in a line: Selectivity interaction (NIMH PDSP panel) EUB0002346a OPRK1. Details: recommended concentration 1 uM. The following applies: at 10 µM.
Data set [16] deals with Vasopressin V1a receptor (Homo sapiens) (UniProt P37288). Description: Selectivity interaction (NIMH PDSP panel) EUB0002346a AVPR1A. Also noted: recommended concentration 1 uM. The following applies: at 10 µM.
Data set [17] deals with T5, Mu-type opioid receptor. Description: Selectivity interaction (CEREP panel) EUB0002346a OPRM1. Details: recommended concentration 1 uM. The conditions noted are these: at 10 µM.
Data set [18] deals with Vasopressin V1a receptor (Homo sapiens) (UniProt P37288). Description: Selectivity interaction (CEREP panel) EUB0002346a AVPR1A. Also noted: recommended concentration 1 uM. The conditions noted are these: at 10 µM.
Data set [19] addresses Vasopressin V1b receptor (Homo sapiens) (UniProt P47901). Description: Selectivity interaction (NIMH PDSP panel) EUB0002346a AVPR1B. Also noted: recommended concentration 1 uM. The following applies: at 10 µM.
For data set [20], the target named is Vasopressin V2 receptor (Homo sapiens) (UniProt P30518). The experiment in a line: Selectivity interaction (NIMH PDSP panel) EUB0002346a AVPR2. Details: recommended concentration 1 uM. The following applies: at 10 µM.
Data set [21] concerns the target T6, Kappa-type opioid receptor. Description: Selectivity interaction (CEREP panel) EUB0002346a OPRK1. Details: recommended concentration 1 uM. The following applies: at 10 µM.
Data set [22] addresses Substance-K receptor (Homo sapiens) (UniProt P21452). The experiment in a line: Selectivity interaction (CEREP panel) EUB0002346a TACR2. Also noted: recommended concentration 1 uM. The conditions noted are these: at 10 µM.
Data set [23] addresses T1, Retinoic acid receptor RXR-alpha (Homo sapiens). The experiment in a line: Selectivity interaction (Reporter gene assay) EUB0002355a RXRA. The conditions noted are these: reference bexarotene 1 uM, Selectivity number of off-targets 0.0, Selectivity number of targets 1.0, Source Knowledge inhouse. Details: recommended concentration 3 uM.
The target in data set [24] is T2, Hepatocyte nuclear factor 4-alpha (Homo sapiens). Description: Selectivity interaction (Reporter gene assay) EUB0002355a HNF4A. Also noted: recommended concentration 3 uM.
In data set [25] the target is Steroidogenic factor 1 (Homo sapiens) (UniProt Q13285). The experiment in a line: Selectivity interaction (Reporter gene assay) EUB0002355a NR5A1. Details: recommended concentration 3 uM.
Data set [26] deals with T4, Nuclear receptor subfamily 2 group C member 1 (Homo sapiens). The experiment in a line: Selectivity interaction (Reporter gene assay) EUB0002355a NR2C1. Details: recommended concentration 3 uM.
Data set [27] deals with T3, Alpha trans-inducing protein (Human alphaherpesvirus 1). The experiment in a line: Selectivity interaction (Reporter gene assay) EUB0002355a UL48. Also noted: recommended concentration 3 uM.
For data set [28], the target named is Nuclear receptor subfamily 4immunitygroup A member 1 (Homo sapiens) (UniProt P22736). Description: Selectivity interaction (Reporter gene assay) EUB0002355a NR4A1. Also noted: recommended concentration 3 uM.
Data set [29] addresses Nuclear receptor subfamily 2 group E member 1 (Homo sapiens) (UniProt Q9Y466). Description: Selectivity interaction (Reporter gene assay) EUB0002355a NR2E1. Details: recommended concentration 3 uM.

Structures are written as SMILES. Where a SMILES comes first, the peptide text is derived from it. [ ]: non-standard residue; d: D form. The star is where a group is joined. Benzoyl(4-tBu) = CC(C)(C)c1ccc(C(=O)*)cc1; Lys(Et2) = CCN(CC)CCCC[C@H](N)C(=O)O

Chain of Substance-K receptor (Homo sapiens) (P21452 whole entry): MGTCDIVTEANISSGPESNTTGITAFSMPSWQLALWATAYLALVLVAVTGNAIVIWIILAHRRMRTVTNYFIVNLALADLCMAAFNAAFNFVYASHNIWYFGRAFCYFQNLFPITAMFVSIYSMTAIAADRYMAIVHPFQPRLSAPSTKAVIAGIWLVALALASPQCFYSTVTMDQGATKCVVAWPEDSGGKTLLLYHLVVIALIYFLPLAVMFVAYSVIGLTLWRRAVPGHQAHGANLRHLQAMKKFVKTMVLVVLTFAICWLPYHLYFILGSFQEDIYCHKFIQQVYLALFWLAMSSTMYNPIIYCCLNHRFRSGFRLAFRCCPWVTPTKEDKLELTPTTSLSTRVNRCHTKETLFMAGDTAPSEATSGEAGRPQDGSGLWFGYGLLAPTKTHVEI
T6 sequence (P41145 whole entry): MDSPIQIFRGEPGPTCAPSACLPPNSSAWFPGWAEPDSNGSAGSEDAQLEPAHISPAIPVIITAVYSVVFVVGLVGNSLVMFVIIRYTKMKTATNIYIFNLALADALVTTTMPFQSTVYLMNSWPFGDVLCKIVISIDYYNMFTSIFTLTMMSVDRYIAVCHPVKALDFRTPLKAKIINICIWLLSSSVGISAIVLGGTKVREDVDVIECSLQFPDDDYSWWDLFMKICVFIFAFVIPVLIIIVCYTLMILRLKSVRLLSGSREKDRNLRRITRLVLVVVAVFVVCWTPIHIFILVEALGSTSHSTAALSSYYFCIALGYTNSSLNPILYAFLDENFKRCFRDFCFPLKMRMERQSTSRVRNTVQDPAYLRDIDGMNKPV
T3 sequence (A0A5J6DW59 as listed by the source): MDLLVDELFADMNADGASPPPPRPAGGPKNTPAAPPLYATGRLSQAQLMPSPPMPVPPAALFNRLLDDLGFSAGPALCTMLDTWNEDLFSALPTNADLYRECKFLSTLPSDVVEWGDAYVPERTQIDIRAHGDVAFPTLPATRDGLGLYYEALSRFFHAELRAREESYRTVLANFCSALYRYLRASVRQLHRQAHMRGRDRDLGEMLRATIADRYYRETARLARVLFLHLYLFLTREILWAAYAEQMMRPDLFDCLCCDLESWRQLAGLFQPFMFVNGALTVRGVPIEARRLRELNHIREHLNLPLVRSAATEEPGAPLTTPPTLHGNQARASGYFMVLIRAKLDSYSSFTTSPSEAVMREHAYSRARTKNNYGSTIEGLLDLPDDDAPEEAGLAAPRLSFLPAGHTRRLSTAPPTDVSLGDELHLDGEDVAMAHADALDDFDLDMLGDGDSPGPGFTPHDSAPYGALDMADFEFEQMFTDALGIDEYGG
Chain of Steroidogenic factor 1 (Homo sapiens) (Q13285 whole entry): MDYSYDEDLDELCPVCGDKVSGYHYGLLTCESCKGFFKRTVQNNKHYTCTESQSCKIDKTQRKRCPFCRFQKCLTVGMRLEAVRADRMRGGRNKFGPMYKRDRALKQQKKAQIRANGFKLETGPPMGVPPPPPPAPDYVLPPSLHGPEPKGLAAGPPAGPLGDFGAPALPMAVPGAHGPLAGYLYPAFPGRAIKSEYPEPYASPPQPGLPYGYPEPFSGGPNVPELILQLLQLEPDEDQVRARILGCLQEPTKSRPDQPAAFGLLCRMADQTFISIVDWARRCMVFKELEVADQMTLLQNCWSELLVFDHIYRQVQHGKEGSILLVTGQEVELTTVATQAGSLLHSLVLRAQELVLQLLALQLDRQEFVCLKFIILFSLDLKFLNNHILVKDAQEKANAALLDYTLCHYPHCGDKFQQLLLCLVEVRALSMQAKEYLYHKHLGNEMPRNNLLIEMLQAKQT
Chain of Vasopressin V1a receptor (Homo sapiens) (P37288 whole entry, looked up): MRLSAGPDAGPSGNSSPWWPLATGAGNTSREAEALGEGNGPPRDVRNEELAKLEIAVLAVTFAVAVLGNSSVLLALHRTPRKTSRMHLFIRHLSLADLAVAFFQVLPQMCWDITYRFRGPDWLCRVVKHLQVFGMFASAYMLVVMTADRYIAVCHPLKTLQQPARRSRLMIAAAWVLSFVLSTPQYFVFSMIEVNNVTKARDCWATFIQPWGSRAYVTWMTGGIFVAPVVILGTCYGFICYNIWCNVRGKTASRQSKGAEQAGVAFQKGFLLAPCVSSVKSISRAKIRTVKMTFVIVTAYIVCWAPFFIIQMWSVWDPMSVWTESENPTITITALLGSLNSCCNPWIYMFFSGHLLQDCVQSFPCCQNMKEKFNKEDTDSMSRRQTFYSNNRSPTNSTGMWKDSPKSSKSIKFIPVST
T5 sequence (P35372 whole entry): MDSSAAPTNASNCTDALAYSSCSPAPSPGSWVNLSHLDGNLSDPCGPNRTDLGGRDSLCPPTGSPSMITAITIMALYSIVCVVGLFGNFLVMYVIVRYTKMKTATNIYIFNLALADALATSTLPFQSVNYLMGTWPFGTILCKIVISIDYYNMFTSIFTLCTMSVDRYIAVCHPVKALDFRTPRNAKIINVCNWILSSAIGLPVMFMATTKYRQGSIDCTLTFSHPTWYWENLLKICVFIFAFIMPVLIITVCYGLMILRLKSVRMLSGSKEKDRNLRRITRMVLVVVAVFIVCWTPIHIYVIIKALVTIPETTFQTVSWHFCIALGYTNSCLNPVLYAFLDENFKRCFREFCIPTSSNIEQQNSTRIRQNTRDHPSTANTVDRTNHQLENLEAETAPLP
Chain of Nuclear receptor subfamily 4immunitygroup A member 1 (Homo sapiens) (P22736 whole entry): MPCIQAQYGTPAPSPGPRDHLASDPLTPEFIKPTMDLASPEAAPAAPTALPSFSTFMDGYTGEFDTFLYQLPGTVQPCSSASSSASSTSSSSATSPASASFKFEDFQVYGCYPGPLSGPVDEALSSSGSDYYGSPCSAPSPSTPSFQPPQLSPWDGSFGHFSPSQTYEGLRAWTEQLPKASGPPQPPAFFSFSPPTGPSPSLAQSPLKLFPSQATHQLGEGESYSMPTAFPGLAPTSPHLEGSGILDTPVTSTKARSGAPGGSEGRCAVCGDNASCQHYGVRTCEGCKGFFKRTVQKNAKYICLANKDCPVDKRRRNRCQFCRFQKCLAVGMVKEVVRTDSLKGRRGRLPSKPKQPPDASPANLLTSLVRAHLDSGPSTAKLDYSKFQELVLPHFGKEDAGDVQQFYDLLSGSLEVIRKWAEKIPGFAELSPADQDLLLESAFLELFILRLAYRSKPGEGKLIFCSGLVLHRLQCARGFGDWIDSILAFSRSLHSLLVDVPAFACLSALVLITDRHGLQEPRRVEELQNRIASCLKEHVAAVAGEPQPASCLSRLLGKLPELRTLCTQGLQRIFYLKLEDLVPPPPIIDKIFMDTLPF
Chain of Nuclear receptor subfamily 2 group E member 1 (Homo sapiens) (Q9Y466 whole entry): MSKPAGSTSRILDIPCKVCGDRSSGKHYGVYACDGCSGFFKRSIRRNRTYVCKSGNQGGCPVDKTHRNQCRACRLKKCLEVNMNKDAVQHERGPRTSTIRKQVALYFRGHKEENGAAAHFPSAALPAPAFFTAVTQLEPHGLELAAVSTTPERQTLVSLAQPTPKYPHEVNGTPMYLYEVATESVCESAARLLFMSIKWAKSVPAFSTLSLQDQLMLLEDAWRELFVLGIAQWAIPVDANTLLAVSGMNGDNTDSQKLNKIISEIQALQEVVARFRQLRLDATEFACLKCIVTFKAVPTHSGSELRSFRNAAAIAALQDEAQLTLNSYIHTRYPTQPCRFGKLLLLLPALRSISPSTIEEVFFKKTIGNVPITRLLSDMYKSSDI
Chain of Vasopressin V1b receptor (Homo sapiens) (P47901 whole entry): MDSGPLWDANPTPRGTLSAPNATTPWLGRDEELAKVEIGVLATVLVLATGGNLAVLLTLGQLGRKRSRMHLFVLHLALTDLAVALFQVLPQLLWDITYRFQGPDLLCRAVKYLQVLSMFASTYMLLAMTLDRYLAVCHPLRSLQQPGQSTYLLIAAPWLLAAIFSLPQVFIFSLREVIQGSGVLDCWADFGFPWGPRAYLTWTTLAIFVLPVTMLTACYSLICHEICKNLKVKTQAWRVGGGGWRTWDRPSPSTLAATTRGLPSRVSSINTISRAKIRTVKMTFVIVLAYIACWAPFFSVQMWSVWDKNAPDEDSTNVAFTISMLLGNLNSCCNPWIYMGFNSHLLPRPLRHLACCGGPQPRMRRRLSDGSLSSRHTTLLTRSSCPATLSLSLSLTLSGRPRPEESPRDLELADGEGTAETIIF
Chain of Delta-type opioid receptor (P41143 whole entry): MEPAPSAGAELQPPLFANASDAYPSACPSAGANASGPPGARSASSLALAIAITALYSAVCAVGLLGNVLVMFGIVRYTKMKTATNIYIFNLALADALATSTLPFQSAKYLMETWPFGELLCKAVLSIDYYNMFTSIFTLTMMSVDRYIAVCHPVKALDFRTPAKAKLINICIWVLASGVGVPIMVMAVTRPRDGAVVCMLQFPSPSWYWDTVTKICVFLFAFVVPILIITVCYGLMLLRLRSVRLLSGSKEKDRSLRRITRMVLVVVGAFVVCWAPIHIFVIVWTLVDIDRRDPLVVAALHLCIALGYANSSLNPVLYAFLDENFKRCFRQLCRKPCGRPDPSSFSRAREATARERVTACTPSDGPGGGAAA
Chain of Substance-P receptor (Homo sapiens) (P25103 whole entry): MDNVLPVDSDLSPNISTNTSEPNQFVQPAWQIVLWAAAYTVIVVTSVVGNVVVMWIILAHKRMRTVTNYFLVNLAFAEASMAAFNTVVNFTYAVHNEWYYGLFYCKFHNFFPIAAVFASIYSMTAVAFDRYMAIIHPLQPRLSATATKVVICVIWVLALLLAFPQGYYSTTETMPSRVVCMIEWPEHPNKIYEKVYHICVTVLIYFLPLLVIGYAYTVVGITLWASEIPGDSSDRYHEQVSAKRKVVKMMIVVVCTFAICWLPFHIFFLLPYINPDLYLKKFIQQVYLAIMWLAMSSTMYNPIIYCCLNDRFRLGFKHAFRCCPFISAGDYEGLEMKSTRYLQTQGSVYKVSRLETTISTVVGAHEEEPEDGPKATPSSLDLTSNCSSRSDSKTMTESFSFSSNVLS

Consider `Fc1ccc(-c2c3cccc(C(F)(F)F)c3nn2Cc2ccc(F)cc2Cl)cc1` [LXR-623], for which the Relative activation in [1] came out at 0.523%. The Fold activation was determined as 0.867 in [2], 1.84 in data set [5], 1.28 in [6] and 1.63 in data set [7]. Besides, in [3], the fold induction was 2.24. Besides, the P-value in [4] was 4.11e-06. Further, the Remaining activity in data set [8] is 0.876.
As to `N#Cc1ccc(-c2c3n(c4cccnc24)CCN(C2CC2)C3=O)cc1F`, the results for the inhibition in data set [9] and in data set [10] were 61.8% and 82.1%, respectively.
Turning to `CCN(CC)CCCC[C@H](NC(=O)[C@H](CC(C)C)NC(=O)[C@H](C)NC(=O)[C@H](Cc1ccccc1)NC(=O)c1ccc(C(C)(C)C)cc1)C(=O)N[C@@H](CO)C(=O)OC` ({Benzoyl(4-tBu)}-FAL[Lys(Et2)]S-OMe), the Inhibition of control (in data set [11]; in [12]; in [13]; on Mu-type opioid receptor [14]; in data set [15]; in data set [16]) was over 50% throughout. In addition, the Inhibition of control on Mu-type opioid receptor [17] is 51%; in data set [18], 85%; in data set [19], over 50%; in data set [20], over 50%; in data set [21], 91%; in data set [22] it was 75%.
Consider `Cc1oc2ccccc2c1Cc1cc(I)c(OCC(=O)O)c(I)c1`, for which the Relative activation in data set [23] was 0.91%. Moreover, the Remaining activity in data set [24] was found to be 0.739; in data set [25] it was 0.684; in [29], 0.732. In addition, the Fold activation in data set [26] came to 1.28; in [28], 1.02. Further, the P-value in [27] amounted to 0.0128.
